Experimental findings from ChEMBL document CHEMBL4184190, “Podophyllotoxin derivatives as an excellent anticancer aspirant for future chemotherapy: A key current imminent needs” (Bioorg Med Chem, 2018) are described below.

What all share (type): functional, cell-based
Test [1] concerns HeLa. Put plainly: Cytotoxicity against human HeLa cells after 48 hrs by MTT assay.
For the next test, the system named is DU-145. Put plainly: Cytotoxicity against human DU145 cells after 48 hrs by MTT assay. The following applies: DU-145, 48 h.
The test system of a further test is A549. The test is described as follows: Cytotoxicity against human A549 cells after 48 hrs by MTT assay. The conditions noted are these: A549, 48 h.
The next test has as its system MCF7. Put plainly: Cytotoxicity against human MCF7 cells after 48 hrs by MTT assay. The following applies: MCF7, 48 h.
The next test deals with K562. The test is described as follows: Cytotoxicity against human K562 cells after 48 hrs by MTT assay. The conditions noted are these: K562, 48 h.
The test system of the next test is U-251. The test is described as follows: Cytotoxicity against human U251 cells after 48 hrs by MTT assay. The conditions noted are these: U-251, 48 h.
Another test relates to BGC-823. The test is described as follows: Cytotoxicity against human BGC823 cells after 48 hrs by MTT assay. The following applies: BGC-823, 48 h.
Test [2] has as its system HeLa. Put plainly: Cytotoxicity against human HeLa cells by MTT assay.

In the case of `COc1ccc2nc([C@@H]3c4cc5c(cc4[C@@H](c4cc(OC)c(OC)c(OC)c4)[C@H]4C(=O)OC[C@H]34)OCO5)oc2c1`, the IC50 with HeLa [1], in the test on DU-145, in the test on A549 and in the test on MCF7 was 1200 to 5300 nM each time.
Take `COc1cc([C@@H]2c3cc4c(cc3[C@@H](Nc3cccc(CN5CCCCC5)c3)[C@H]3COC(=O)[C@H]23)OCO4)cc(OC)c1OC`: the values for the IC50 in the test on A549, in the test with K562 and in the test on U-251 were 14500 nM, 1100 nM and 400 nM, respectively.
`COc1cc([C@@H]2c3cc4c(cc3[C@@H](Nc3ncccc3F)[C@H]3COC(=O)[C@H]23)OCO4)cc(OC)c1O`: the IC50 is 60 nM with HeLa [1], 1420 nM in the test with MCF7 and 960 nM in the test on BGC-823.
`COc1cc([C@@H]2c3cc4c(cc3[C@@H](NC(=O)C(=O)c3c[nH]c5ccc(C(=O)N6CCCCC6)cc35)[C@H]3COC(=O)[C@H]23)OCO4)cc(OC)c1OC` yielded an IC50 in the test on HeLa [2] of 5570 nM.
`COc1cc([C@@H]2c3cc4c(cc3[C@@H](NC(=O)C(=O)c3c[nH]c5ccc(C(=O)NC(C)C)cc35)[C@H]3COC(=O)[C@H]23)OCO4)cc(OC)c1OC` returned an IC50 with HeLa [2] of 3920 nM.
`CCN(CC)C(=O)c1ccc2[nH]cc(C(=O)C(=O)N[C@@H]3c4cc5c(cc4[C@@H](c4cc(OC)c(OC)c(OC)c4)[C@H]4C(=O)OC[C@@H]43)OCO5)c2c1`: the IC50 in the test on HeLa [2] amounted to 5190 nM.
`COc1cc([C@@H]2c3cc4c(cc3[C@@H](c3nc5ccccc5o3)[C@H]3COC(=O)[C@H]23)OCO4)cc(OC)c1OC`: the IC50 in the test on HeLa [1], with DU-145, in the test with A549 and with MCF7 was 1200 to 5300 nM in each case.
Take `COc1cc([C@@H]2c3cc4c(cc3[C@@H](Nc3ncccc3F)[C@H]3COC(=O)[C@H]23)OCO4)cc(OC)c1OC`: the results for the IC50 with HeLa [1], in the test with MCF7 and in the test with BGC-823 were 200 nM, 4490 nM and 2180 nM, respectively.
For `COc1cc([C@@H]2c3cc4c(cc3[C@@H](c3nc5ccc(Cl)cc5o3)[C@H]3COC(=O)[C@H]23)OCO4)cc(OC)c1OC`, the IC50 in the test with HeLa [1], in the test on DU-145, in the test on A549 and in the test on MCF7 was 1200 to 5300 nM each time.
In the case of `COc1cc([C@@H]2c3cc4c(cc3[C@@H](c3nc5ccc(OC)c(OC)c5o3)[C@H]3COC(=O)[C@H]23)OCO4)cc(OC)c1OC`, the IC50 in the test on HeLa [1] was 1200 to 5300 nM; in the test on DU-145, 1200 to 5300 nM; with A549, 1800 nM; with MCF7, 2000 nM.
In the case of `COc1cc([C@@H]2c3cc4c(cc3[C@@H](O[C@@H]3O[C@@H]5CO[C@@H](C)O[C@H]5[C@H](O)[C@H]3O)[C@H]3COC(=O)[C@H]23)OCO4)cc(OC)c1O` [ETOPOSIDE], the IC50 in the test with HeLa [1], in the test on DU-145, in the test with A549 and in the test on MCF7 was 2030 to 5740 nM throughout.
